Measured values taken from patent publication US6391575B1, “Methods for detecting membrane derived caspase activity and modulators thereof” (IDUN Pharmaceuticals, Inc., priority 1999, dated 2002).

Legend:
[1] = target: T1, membrane-derived caspases (Homo sapiens, UniProt P42574); assay: Kinetics of DEVD-amc hydrolysis by membrane-derived caspases; type: biochemical; conditions: substrate concentration varied 1-100 μM
T1 construct: endogenous in cells
T1 sequence (P42574 29-175 limits assumed): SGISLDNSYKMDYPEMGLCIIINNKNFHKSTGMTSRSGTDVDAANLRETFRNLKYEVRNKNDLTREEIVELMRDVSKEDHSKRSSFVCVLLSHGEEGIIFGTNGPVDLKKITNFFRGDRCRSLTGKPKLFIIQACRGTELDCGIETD
T1 sequence (P42574 176-277 limits assumed): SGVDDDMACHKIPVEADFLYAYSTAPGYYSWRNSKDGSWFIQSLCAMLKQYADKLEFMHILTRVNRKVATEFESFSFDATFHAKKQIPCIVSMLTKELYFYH
Protocol: Caspase activity was measured by mixing 50 μl of an enzyme-containing fraction and 200 μl of 25 μM DEVD-amc (Asp-Glu-Val-Asp-aminomethylcoumarin) substrate in ICE buffer (20 mM HEPES, 1 mM EDTA, 0.1% CHAPS, 10% sucrose, 5 mM DTT, pH 7.5) in duplicate Cytoplate wells. Product formation was monitored by the increase in fluorescence (ex=360 nm, em=460 nm) over 1-2 hours at 30 ° C. using the CytoFluor 4000 plate reader (Perseptive Biosystems, Framingham, Mass.). For kinetic studies, the substrate concentration was varied in the range 1-100 μM. For inhibition studies the enzyme was pretreated with 150 μl inhibitor for 30 min at room temperature prior to the addition of 50 μl of 50 μM substrate solution. Inhibitor IC50 values were determined using the equation: […]
The membrane-derived caspase activities were further characterized by measuring the inhibition of DEVD-amc cleavage by several peptide aldehyde inhibitors (Table I). […] The observed IC50 values for the membrane associated caspases are very similar to those for purified fully-processed recombinant human caspase-3. […] N-terminal microsequence analysis of activated, affinity purified heavy membrane caspase confirms that this enzyme is indeed human caspase-3.

[2] = test system: membrane-associated procaspase-3 (697-neo and 697-Bcl-2 heavy membranes); assay: Effect of exogenous cytochrome c on heavy membrane caspase activity; type: biochemical, human; conditions: 10 μg/ml bovine cytochrome c during fractionation; 1 μg/ml cytochrome c plus dATP, 40 min at 30° C.; FIG. 6A
Protocol: (§1) Frozen cell pellets containing ≈10^9 cells were thawed and resuspended in cold hypotonic buffer (10 mM Na-HEPES, 5 mM MgCl2, 42 mM KCl, pH 7.4) supplemented with 1 mM PMSF, 1 μg/ml leupeptin, 1 μg/ml pepstatin A, 5 μg/ml aprotinin, 0.1 mM EDTA, 0.1 mM EGTA and 5 mM DTT (Sigma) to a density of ≈1.5×10^8 cells/ml. The samples were incubated on ice for 30 min at which time the cells were lysed using 30-40 strokes with a Dounce homogenizer. The sample was centrifuged twice for 10 min at 500×g, 4° C. to separate the nuclei. The nuclear pellets were then washed twice in the same buffer supplemented with 1.6M sucrose, yielding the nuclear fraction. The supernatant was then centrifuged at 14,000×g for 30 min at 4° C. to pellet the heavy membranes. […] Protein concentrations were measured using Protein Assay Kit II from BioRad with bovine serum albumin as the calibration standard. […]
(§2) Heavy membrane samples were diluted to 1 mg/ml in hypotonic buffer or in 0.25 M sucrose, 10 mM MOPS, 2 mM EDTA, pH 7.4 (Mancini, et al., 1998) containing 5 mM DTT with or without 1% NP-40. […] To examine the time course of spontaneous activation of caspase activity from membranes, 50 μl of heavy membrane slurry containing 50-100 μg total protein was mixed with 200 μl hypotonic buffer containing 25 μM DEVD-amc substrate and 6 mM DTT in 96 well Cytofluor plates and fluorescence was measured over time. […]

[3] = test system: caspase-3 in cytoplasmic fractions (697-neo and 697-Bcl-2 cells); assay: Effect of exogenous cytochrome c on cytoplasmic fraction caspase activity; type: biochemical, human; conditions: cytochrome c during fractionation and assay; neo and Bcl-2 cells; FIG. 6B
Protocol: as §1, §2

Question: How did the Km [1] turn out when “Acetyl-Asp-Glu-Val-Asp-aminomethylcoumarin [DEVD-amc]” was run?
Answer: 10 µM

Question: Which “Effect on membrane-derived caspase activity (DEVD-amc cleavage)” value [2] does the source give for “cytochrome c: bovine cytochrome c (Sigma)” here?
Answer: no effect

Question: What about the “Effect on DEVD-amc cleavage activity of cytoplasmic fractions” value [3] of the same substance?
Answer: strongly activated
